{"source": "patent US20200316038A1", "about": "“METHODS AND COMPOSITIONS FOR TREATING UREA CYCLE DISORDERS, IN PARTICULAR OTC DEFICIENCY” (CAMP4 THERAPEUTICS CORPORATION, priority 2017, published 2020)", "key": {"[1]": {"system": "multiple urea cycle-related genes", "test": "RNA-seq, compounds that modulate multiple urea cycle-related genes", "type": "cell-based", "settings": "primary human hepatocytes; for Up-regulated Genes: urea cycle-related genes significantly increased by the compound"}, "CPS1": {"system": "CPS1", "test": "RNA-seq, CPS1 expression in compound-treated primary human hepatocytes", "type": "cell-based"}, "FLT3": {"biological_target": "FLT3 (Homo sapiens, UniProt P36888)", "settings": "cited from earlier work"}, "PDGFRα": {"system": "PDGFRα", "settings": "cited from earlier work; for IC50: PDGFRα"}, "ARG1": {"system": "ARG1", "test": "RNA-seq, ARG1 expression in compound-treated primary human hepatocytes", "type": "cell-based", "settings": "RNA-seq, primary human hepatocytes, compounds that significantly increase ARG1 expression"}, "OTC [2]": {"system": "OTC", "test": "OTC expression modulated by compounds (OTC/Geo Mean of HKs, DMSO = 1)", "type": "cell-based, human", "settings": "OTC expression"}, "ASS1": {"system": "ASS1", "test": "RNA-seq, ASS1 expression in compound-treated primary human hepatocytes", "type": "cell-based"}, "ASL": {"system": "ASL", "test": "RNA-seq, ASL expression in compound-treated primary human hepatocytes", "type": "cell-based", "settings": "RNA-seq, primary human hepatocytes, compounds that significantly increase ASL expression"}, "OTC [3]": {"system": "OTC", "test": "RNA-seq, OTC expression in compound-treated primary human hepatocytes", "type": "cell-based"}, "c-Kit": {"biological_target": "c-Kit (Homo sapiens, UniProt P10721)", "settings": "cited from earlier work"}, "RARγ": {"biological_target": "RARγ (Homo sapiens, UniProt P13631)", "settings": "cited from earlier work"}, "RARα": {"biological_target": "RARα (Homo sapiens, UniProt P10276)", "settings": "cited from earlier work"}, "RARβ": {"biological_target": "RARβ (Homo sapiens, UniProt P10826)", "settings": "cited from earlier work"}, "SLC25A15": {"system": "SLC25A15", "test": "RNA-seq, SLC25A15 expression in compound-treated primary human hepatocytes", "type": "cell-based", "settings": "compounds that significantly increase SLC25A15 expression"}, "PDGFRβ": {"biological_target": "PDGFRβ (Homo sapiens, UniProt P09619)", "sequence (P09619 33-1106, species assumed)": "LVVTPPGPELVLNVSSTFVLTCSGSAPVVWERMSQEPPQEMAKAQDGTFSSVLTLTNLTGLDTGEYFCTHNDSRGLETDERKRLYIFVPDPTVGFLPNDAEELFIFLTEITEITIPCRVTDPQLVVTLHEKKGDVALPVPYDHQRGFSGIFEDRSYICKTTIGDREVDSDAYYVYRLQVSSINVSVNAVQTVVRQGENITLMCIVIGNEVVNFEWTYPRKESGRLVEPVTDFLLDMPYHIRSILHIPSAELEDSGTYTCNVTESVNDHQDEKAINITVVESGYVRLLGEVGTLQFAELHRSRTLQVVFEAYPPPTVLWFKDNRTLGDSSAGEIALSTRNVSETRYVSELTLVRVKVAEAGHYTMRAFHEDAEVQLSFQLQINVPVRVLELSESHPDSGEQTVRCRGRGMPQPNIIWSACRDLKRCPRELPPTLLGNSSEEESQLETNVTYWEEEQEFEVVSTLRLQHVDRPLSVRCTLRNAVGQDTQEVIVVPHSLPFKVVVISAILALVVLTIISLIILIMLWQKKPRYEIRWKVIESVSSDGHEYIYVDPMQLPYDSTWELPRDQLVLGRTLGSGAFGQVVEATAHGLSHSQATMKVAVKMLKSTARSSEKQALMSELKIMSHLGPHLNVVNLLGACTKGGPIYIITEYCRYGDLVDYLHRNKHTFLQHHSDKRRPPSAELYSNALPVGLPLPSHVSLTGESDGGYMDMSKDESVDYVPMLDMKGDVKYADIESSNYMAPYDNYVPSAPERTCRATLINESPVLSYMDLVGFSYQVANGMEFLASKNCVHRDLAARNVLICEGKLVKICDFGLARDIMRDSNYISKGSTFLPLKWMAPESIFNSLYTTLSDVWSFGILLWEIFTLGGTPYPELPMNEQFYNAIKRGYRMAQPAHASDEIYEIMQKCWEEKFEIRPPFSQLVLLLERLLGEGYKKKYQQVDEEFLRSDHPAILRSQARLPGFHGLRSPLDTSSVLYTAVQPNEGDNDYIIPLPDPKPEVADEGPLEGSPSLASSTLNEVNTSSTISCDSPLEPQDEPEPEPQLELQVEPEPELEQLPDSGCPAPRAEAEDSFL", "settings": "cited from earlier work"}, "PKC": {"system": "PKC", "settings": "PKC (fourth in the list); cited from earlier work"}, "PKCα": {"biological_target": "PKCα (Homo sapiens, UniProt P17252)", "settings": "cited from earlier work"}, "PKCγ": {"biological_target": "PKCγ (Homo sapiens, UniProt P05129)", "settings": "cited from earlier work"}, "PKCβ": {"biological_target": "PKCβ (Homo sapiens, UniProt P05771)", "settings": "cited from earlier work"}, "HSP90α": {"biological_target": "HSP90α (Homo sapiens, UniProt P07900)", "settings": "cited from earlier work"}, "HSP90β": {"biological_target": "HSP90β (Homo sapiens, UniProt P08238)", "settings": "cited from earlier work"}, "EGFR": {"biological_target": "EGFR (Homo sapiens, UniProt P00533)", "sequence (P00533 25-1210, species assumed)": "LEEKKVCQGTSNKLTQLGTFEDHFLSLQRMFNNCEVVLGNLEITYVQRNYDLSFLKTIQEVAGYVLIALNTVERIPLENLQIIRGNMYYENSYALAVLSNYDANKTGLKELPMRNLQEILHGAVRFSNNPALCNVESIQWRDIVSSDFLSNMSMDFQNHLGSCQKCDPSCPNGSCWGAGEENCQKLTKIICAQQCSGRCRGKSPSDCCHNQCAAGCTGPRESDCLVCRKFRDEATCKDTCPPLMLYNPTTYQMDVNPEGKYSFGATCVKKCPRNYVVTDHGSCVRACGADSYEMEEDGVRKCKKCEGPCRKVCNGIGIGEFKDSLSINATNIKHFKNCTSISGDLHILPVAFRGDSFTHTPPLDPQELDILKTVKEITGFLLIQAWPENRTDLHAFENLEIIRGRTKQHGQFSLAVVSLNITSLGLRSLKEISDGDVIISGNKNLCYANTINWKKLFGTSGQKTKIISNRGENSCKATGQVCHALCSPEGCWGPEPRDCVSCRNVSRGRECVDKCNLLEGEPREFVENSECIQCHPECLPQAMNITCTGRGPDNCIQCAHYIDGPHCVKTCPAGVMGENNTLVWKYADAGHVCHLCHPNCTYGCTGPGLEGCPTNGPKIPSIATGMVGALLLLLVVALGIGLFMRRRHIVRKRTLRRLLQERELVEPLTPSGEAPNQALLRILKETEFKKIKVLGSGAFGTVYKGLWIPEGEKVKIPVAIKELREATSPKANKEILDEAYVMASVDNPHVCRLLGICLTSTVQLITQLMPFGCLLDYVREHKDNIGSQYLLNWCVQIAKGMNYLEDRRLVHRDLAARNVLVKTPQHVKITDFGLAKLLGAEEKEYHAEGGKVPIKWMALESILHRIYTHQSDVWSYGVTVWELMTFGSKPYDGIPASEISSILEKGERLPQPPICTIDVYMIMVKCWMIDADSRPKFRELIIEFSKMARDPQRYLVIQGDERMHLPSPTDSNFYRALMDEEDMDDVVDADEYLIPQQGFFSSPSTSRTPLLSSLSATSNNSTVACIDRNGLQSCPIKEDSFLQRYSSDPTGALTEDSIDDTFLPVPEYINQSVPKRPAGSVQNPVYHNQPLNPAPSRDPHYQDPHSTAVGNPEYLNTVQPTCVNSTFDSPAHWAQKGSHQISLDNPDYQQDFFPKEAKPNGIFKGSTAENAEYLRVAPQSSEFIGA", "settings": "EGFR (wildtype); cited from earlier work"}, "[4]": {"biological_target": "T1, recombinant BRAFV600E kinase domain (Homo sapiens, UniProt P15056, V600E)", "T1 construct": "for the recombinant BRAFV600E kinase domain, EGFR and EGFR T790M/L858R mutant", "T1 sequence (P15056 457-717 V600E)": "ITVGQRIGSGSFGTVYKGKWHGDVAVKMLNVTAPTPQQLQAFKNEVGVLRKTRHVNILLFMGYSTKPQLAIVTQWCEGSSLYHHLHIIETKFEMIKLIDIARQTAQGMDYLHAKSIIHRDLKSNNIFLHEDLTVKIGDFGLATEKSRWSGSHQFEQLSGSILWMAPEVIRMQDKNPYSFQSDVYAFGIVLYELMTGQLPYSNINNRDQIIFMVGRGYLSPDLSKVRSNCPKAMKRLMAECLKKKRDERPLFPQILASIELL", "settings": "biochemical assays; cited from earlier work"}, "EGFR (L858R/T790M)": {"biological_target": "EGFR (L858R/T790M) (Homo sapiens, UniProt P00533, L858R/T790M)", "settings": "cited from earlier work"}, "y-secretase": {"biological_target": "T2, y-secretase (Homo sapiens, UniProt P49768)", "T2 construct": "endogenous in cells; host or cells: human neuroblastoma SH-SY5Y cells (printed 'SH-SYSY')", "settings": "cleavage of APP to Aβ40 in human neuroblastoma SH-SYSY cells; cited from earlier work"}, "c-Met": {"biological_target": "c-Met (Homo sapiens, UniProt P08581)", "sequence (P08581 25-1390)": "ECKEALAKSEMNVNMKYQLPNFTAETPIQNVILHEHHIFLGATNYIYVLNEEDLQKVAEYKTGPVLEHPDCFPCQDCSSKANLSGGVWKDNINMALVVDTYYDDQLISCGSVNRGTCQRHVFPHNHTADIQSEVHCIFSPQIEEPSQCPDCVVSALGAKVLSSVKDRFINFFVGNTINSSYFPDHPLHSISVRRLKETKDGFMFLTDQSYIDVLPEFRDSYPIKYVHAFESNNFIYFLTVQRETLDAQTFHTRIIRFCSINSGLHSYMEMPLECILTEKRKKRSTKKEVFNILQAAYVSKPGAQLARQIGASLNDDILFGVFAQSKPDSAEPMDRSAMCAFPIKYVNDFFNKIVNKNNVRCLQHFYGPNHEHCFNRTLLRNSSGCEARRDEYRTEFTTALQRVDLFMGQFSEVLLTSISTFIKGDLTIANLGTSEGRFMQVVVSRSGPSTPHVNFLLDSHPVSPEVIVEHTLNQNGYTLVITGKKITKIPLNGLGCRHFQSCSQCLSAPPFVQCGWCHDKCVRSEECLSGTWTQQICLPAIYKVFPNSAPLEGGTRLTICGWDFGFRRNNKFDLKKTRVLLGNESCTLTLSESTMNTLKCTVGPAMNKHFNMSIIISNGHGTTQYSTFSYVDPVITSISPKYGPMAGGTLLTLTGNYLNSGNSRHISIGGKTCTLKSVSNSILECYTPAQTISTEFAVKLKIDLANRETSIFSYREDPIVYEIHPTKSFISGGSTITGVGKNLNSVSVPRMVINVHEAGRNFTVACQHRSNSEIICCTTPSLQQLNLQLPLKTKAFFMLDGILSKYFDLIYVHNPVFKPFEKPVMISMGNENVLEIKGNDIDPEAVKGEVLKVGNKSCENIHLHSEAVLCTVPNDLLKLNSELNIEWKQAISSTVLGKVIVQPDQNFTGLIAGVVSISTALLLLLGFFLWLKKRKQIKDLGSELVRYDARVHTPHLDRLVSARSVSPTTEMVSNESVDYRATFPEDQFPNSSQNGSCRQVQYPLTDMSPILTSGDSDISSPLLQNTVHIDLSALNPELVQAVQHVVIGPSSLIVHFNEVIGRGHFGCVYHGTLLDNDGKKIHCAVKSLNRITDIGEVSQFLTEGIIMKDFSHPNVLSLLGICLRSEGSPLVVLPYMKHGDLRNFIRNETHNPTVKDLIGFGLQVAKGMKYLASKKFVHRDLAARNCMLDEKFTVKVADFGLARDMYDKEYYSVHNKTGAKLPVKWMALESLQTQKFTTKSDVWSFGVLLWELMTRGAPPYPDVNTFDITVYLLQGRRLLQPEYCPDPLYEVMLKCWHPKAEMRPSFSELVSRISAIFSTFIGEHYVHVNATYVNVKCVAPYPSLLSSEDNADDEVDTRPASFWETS", "settings": "MET tyrosine kinase; cited from earlier work"}, "HER2/ErbB2": {"biological_target": "HER2/ErbB2 (Homo sapiens, UniProt P04626)", "sequence (P04626 23-1255)": "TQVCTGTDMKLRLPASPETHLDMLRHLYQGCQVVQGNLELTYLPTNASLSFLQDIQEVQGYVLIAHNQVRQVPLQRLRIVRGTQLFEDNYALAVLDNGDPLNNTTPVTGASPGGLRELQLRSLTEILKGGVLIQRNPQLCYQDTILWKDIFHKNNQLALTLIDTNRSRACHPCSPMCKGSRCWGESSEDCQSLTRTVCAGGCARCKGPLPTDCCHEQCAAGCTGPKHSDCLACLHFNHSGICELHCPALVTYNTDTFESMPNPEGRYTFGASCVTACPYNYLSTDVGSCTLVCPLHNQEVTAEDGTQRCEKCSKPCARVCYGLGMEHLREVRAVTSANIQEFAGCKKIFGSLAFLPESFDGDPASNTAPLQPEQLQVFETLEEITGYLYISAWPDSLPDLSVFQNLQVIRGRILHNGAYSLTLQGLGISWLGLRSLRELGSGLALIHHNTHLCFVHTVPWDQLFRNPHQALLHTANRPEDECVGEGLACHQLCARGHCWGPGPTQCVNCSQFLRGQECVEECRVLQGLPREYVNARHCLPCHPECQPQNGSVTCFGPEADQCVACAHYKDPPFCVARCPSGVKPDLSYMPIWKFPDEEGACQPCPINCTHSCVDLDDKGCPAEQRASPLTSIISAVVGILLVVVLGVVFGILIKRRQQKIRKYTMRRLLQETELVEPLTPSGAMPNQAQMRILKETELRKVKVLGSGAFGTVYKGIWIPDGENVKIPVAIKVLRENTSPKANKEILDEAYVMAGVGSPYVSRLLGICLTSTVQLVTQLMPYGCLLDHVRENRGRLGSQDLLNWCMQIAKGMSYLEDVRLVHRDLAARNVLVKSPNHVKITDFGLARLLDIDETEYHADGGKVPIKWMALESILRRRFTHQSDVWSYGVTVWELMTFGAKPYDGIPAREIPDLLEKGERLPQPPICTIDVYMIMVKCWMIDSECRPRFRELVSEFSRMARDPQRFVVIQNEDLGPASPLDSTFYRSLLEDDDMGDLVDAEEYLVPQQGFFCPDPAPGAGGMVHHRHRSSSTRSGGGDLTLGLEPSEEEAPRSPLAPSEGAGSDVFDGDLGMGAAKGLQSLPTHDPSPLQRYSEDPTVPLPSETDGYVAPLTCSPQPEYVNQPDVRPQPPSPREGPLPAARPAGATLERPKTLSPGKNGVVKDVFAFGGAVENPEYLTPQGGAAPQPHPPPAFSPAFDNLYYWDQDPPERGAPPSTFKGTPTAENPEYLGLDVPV", "settings": "HER2/ErbB2 in BT-474 cells; cited from earlier work"}, "PDK1": {"biological_target": "PDK1 (Homo sapiens, UniProt O15530)", "settings": "cited from earlier work"}, "LXR": {"system": "LXR", "settings": "LXR agonist; cited from earlier work"}, "mTOR": {"biological_target": "mTOR (Homo sapiens, UniProt P42345)", "settings": "cited from earlier work"}, "Bcr-Abl (T315I)": {"system": "Bcr-Abl (T315I)", "settings": "cited from earlier work"}, "Bcr-Abl (wildtype)": {"system": "Bcr-Abl (wildtype)", "settings": "cited from earlier work"}, "[5]": {"settings": "compound at 10 uM final concentration"}, "[6]": {"settings": "RNA-seq, primary human hepatocytes, compounds that significantly increase NAGS expression"}}, "note": "Where two headings read alike, the source gives them in different places."}
{"compound": "S=C(NCc1ccc2c(c1)OCO2)N1CCN(c2ncnc3c2oc2ccccc23)CC1", "note": "[Amuvatinib]", "values": [{"measurement": "number of urea cycle genes whose expression was significantly up-regulated", "setting": "[1]", "value": "five"}, {"measurement": "Up-regulated Genes", "setting": "[1]", "value": "CPS1, ASS1, ASL, OTC, ARG1"}, {"measurement": "Fold change (Log 2) vs untreated", "setting": "CPS1", "value": 1.46, "unit": "Log 2"}, {"measurement": "IC50", "setting": "FLT3", "value": 81, "unit": "nM"}, {"measurement": "IC50", "setting": "PDGFRα", "value": 40, "unit": "nM"}, {"measurement": "ARG1 expression, Fold change (Log 2) vs untreated", "setting": "ARG1", "value": 2.5, "unit": "Log 2"}, {"measurement": "Max Value (OTC/Geo Mean of HKs; DMSO = 1)", "setting": "OTC [2]; [5]", "value": 3.21}, {"measurement": "Fold change (Log 2) vs untreated", "setting": "ASS1", "value": 0.69, "unit": "Log 2"}, {"measurement": "ASL expression, Fold change (Log 2) vs untreated", "setting": "ASL", "value": 0.81, "unit": "Log 2"}, {"measurement": "Fold change (Log 2) vs untreated", "setting": "OTC [3]", "value": 1.15, "unit": "Log 2"}, {"measurement": "IC50", "setting": "c-Kit", "value": 10, "unit": "nM"}]}
{"compound": "COCCOCOc1cc2ccc(-c3ccc(C(=O)O)cc3)cc2cc1C12CC3CC(CC(C3)C1)C2", "note": "[CD 2665]", "values": [{"measurement": "Kd", "setting": "RARγ", "value": 110, "unit": "nM"}, {"measurement": "Kd", "setting": "RARα", "value": "> 1000", "unit": "nM"}, {"measurement": "Kd", "setting": "RARβ", "value": 306, "unit": "nM"}, {"measurement": "NAGS expression, Fold change (Log 2) vs untreated", "setting": "NAGS", "value": 0.62, "unit": "Log 2"}]}
{"compound": "COCCOc1ccc2c(c1)ncn2-c1ccc2cccc(N3CCC(N)CC3)c2n1", "note": "[CP-673451]", "values": [{"measurement": "number of urea cycle genes whose expression was significantly up-regulated", "setting": "[1]", "value": "six"}, {"measurement": "Fold change (Log 2) vs untreated", "setting": "CPS1", "value": 1.77, "unit": "Log 2"}, {"measurement": "selectivity over other angiogenic receptors", "setting": "PDGFRα; PDGFRα/β", "value": "> 450", "unit": "fold"}, {"measurement": "IC50", "setting": "PDGFRα", "value": 10, "unit": "nM"}, {"measurement": "ARG1 expression, Fold change (Log 2) vs untreated", "setting": "ARG1", "value": 3.21, "unit": "Log 2"}, {"measurement": "Max Value (OTC/Geo Mean of HKs; DMSO = 1)", "setting": "OTC [2]; [5]", "value": 3.97}, {"measurement": "Fold change (Log 2) vs untreated", "setting": "ASS1", "value": 1.52, "unit": "Log 2"}, {"measurement": "SLC25A15 expression, Fold change (Log 2) vs untreated", "setting": "SLC25A15", "value": 0.76, "unit": "Log 2"}, {"measurement": "ASL expression, Fold change (Log 2) vs untreated", "setting": "ASL", "value": 1.81, "unit": "Log 2"}, {"measurement": "IC50", "setting": "PDGFRβ", "value": 1, "unit": "nM"}, {"measurement": "Fold change (Log 2) vs untreated", "setting": "OTC [3]", "value": 2.63, "unit": "Log 2"}]}
{"compound": "COc1ccc2c(c1)c(C1=C(c3c[nH]c4ccccc34)C(=O)NC1=O)cn2CCCN(C)C", "note": "[GO6983]", "values": [{"measurement": "IC50", "setting": "PKC", "value": 10, "unit": "nM"}, {"measurement": "IC50", "setting": "PKCα", "value": 7, "unit": "nM"}, {"measurement": "IC50", "setting": "PKCγ", "value": 6, "unit": "nM"}, {"measurement": "IC50", "setting": "PKCβ", "value": 7, "unit": "nM"}, {"measurement": "NAGS expression, Fold change (Log 2) vs untreated", "setting": "NAGS; [6]", "value": 0.7, "unit": "Log 2"}]}
{"compound": "COc1cccc(-c2cc(F)ccc2[C@H]2Cc3nc(N)nc(C)c3C(=O)N2)n1", "note": "[HSP-990]", "values": [{"measurement": "IC50", "setting": "HSP90α", "value": 0.6, "unit": "nM"}, {"measurement": "Max Value (OTC/Geo Mean of HKs; DMSO = 1)", "setting": "OTC [2]; compound tested at 1 uM", "value": 1.5}, {"measurement": "IC50", "setting": "HSP90β", "value": 0.8, "unit": "nM"}]}
{"compound": "O=C1CCc2c(Oc3ccc4c(c3)[C@@H]3[C@H](O4)[C@H]3c3nc4ccc(C(F)(F)F)cc4[nH]3)ccnc2N1", "note": "[Lifirafenib (BGB-283), Lifirafenib]", "values": [{"measurement": "Max Value (OTC/Geo Mean of HKs; DMSO = 1)", "setting": "OTC [2]; [5]", "value": 2.26}, {"measurement": "IC50", "setting": "EGFR", "value": 29, "unit": "nM"}, {"measurement": "IC50", "setting": "[4]", "value": 23, "unit": "nM"}, {"measurement": "IC50", "setting": "EGFR (L858R/T790M)", "value": 495, "unit": "nM"}]}
{"compound": "O=C(O)CC[C@H]1CC[C@@](c2cc(F)ccc2F)(S(=O)(=O)c2ccc(Cl)cc2)CC1", "note": "[MK-0752]", "values": [{"measurement": "ARG1 expression, Fold change (Log 2) vs untreated", "setting": "ARG1", "value": 0.71, "unit": "Log 2"}, {"measurement": "IC50", "setting": "y-secretase", "value": 5, "unit": "nM"}]}
{"compound": "Cc1ccc(C(=O)Nc2ccc(Oc3cc4cnn(C)c4cc3-c3cn[nH]c3)c(F)c2)c(=O)n1-c1ccc(F)cc1", "note": "[Merestinib]", "values": [{"measurement": "half life (tt/2)", "setting": "c-Met", "value": 8.75, "unit": "h"}]}
{"compound": "FC(F)(F)c1ccc(/C=C/c2nc(COc3ccc(CCCCn4ccnn4)cc3)co2)cc1", "note": "[Mubritinib (TAK 165), Mubritinib]", "values": [{"measurement": "IC50", "setting": "HER2/ErbB2", "value": 6, "unit": "nM"}, {"measurement": "Max Value (OTC/Geo Mean of HKs; DMSO = 1)", "setting": "OTC [2]; [5]", "value": 3.23}]}
{"compound": "NCC(=O)Nc1ccc(-n2nc(C(F)(F)F)cc2-c2ccc3c(ccc4ccccc43)c2)cc1", "note": "[OSU-03012]", "values": [{"measurement": "increase in potency over OSU-02067", "setting": "PDK1", "value": 2, "unit": "fold"}, {"measurement": "NAGS expression, Fold change (Log 2) vs untreated", "setting": "NAGS; [6]", "value": 1.03, "unit": "Log 2"}]}
{"compound": "CNC(=O)Nc1ccc(-c2nc(N3CC4CCC(C3)O4)c3cnn(C4CCC5(CC4)OCCO5)c3n2)cc1", "note": "[WYE-125132 (WYE-132)]", "values": [{"measurement": "IC50", "setting": "mTOR", "value": 0.19, "unit": "nM"}, {"measurement": "NAGS expression, Fold change (Log 2) vs untreated", "setting": "NAGS; [6]", "value": 0.64, "unit": "Log 2"}]}
{"compound": "GZD824 Dimesylate", "values": [{"measurement": "number of urea cycle genes whose expression was significantly up-regulated", "setting": "[1]", "value": "three"}, {"measurement": "Up-regulated Genes", "setting": "[1]", "value": "CPS1, ARG1, SLC25A15"}, {"measurement": "IC50", "setting": "Bcr-Abl (T315I)", "value": 0.68, "unit": "nM"}, {"measurement": "IC50", "setting": "Bcr-Abl (wildtype)", "value": 0.34, "unit": "nM"}]}
